From patent US20230085307A1, “PYRIDAZINONE COMPOUND AND HERBICIDE” (NISSAN CHEMICAL CORPORATION, priority 2019, published 2023)

What was measured:
redroot pigweed [1] = assay: Test Example 4: herbicidal effect by soil treatment (Table 19, symbol N); assay type: in vivo, redroot pigweed (Amaranthus retroflexus); conditions: amount of applied herbicide 320 g/ha
Procedure, shortened: (§1)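 Seeds were sown in sterilized diluvial soil and covered with about 1.5 cm of soil. An emulsion formulation diluted with water to a predetermined herbicide amount was sprayed evenly onto the soil surface. Plants grew in a greenhouse at 25° C. to 30° C., and the effect was scored three weeks after application using criteria from an earlier test.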

persian speedwell [2] = assay: Test Example 4: herbicidal effect by soil treatment (Table 19, symbol R); assay type: in vivo, Persian speedwell (Veronica persica); conditions: amount of applied herbicide 320 g/ha
Procedure, shortened: as §1

blackgrass [3] = assay: Test Example 4: herbicidal effect by soil treatment (Table 19, symbol J); assay type: in vivo, blackgrass (Alopecurus myosuroides); conditions: amount of applied herbicide 320 g/ha
Procedure, shortened: as §1

velvetleaf [4] = assay: Test Example 4: herbicidal effect by soil treatment (Table 19, symbol M); assay type: in vivo, velvetleaf (Abutilon theophrasti); conditions: amount of applied herbicide 320 g/ha
Procedure, shortened: as §1

southern crabgrass [5] = assay: Test Example 4: herbicidal effect by soil treatment (Table 19, symbol F); assay type: in vivo, southern crabgrass (Digitaria ciliaris); conditions: amount of applied herbicide 320 g/ha
Procedure, shortened: as §1

windgrass [6] = assay: Test Example 5: herbicidal effect by foliage application, plastic box (Table 20, symbol L); assay type: in vivo, windgrass (Apera spica-venti); conditions: amount of applied herbicide 320 g/ha; foliage application after 14-day growth; evaluated three weeks after application
Procedure, shortened: (§2)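 Plants sown in sterilized diluvial soil and grown 14 days in a greenhouse at 25° C to 30° C, then sprayed on the foliage with the compound's emulsion diluted in water to a predetermined herbicide amount. Injury to weeds and crops scored three weeks after application on a visual rating scale.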

Chinese sprangletop = assay: Test Example 3: herbicidal effect by foliage application, Wagner pot (Table 18, symbol D); assay type: in vivo, chinese sprangletop (Leptochloa chinensis); conditions: 320 g/ha
Procedure, shortened: (§3)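 Plants were sown in alluvial soil held under 0.1–0.5 cm standing water and grown 14 days in a greenhouse at 25–30 °C. An emulsifiable formulation, water-diluted to the set dose, was then sprayed onto the foliage, and effects were scored three weeks later using previously defined criteria.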

redroot pigweed [7] = assay: Test Example 5: herbicidal effect by foliage application, plastic box (Table 20, symbol N); assay type: in vivo, redroot pigweed (Amaranthus retroflexus); conditions: amount of applied herbicide 320 g/ha; foliage application after 14-day growth; evaluated three weeks after application
Procedure, shortened: as §2

late watergrass = assay: Test Example 1: herbicidal activity, application before weed generation under submerged conditions (Table 16, symbol A); assay type: in vivo, late watergrass (Echinochloa oryzicola); conditions: amount of applied herbicide 320 g/ha
Procedure, shortened: (§4)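 Alluvial soil was flooded to 4 cm depth, weed seeds were sown mixed and 2.5-leaf rice seedlings were transplanted. On sowing day, the compound's emulsion, diluted in water to a set dose, was applied to the water surface. Plants grew at 25–30 °C and were scored 0–5 after three weeks.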

lambsquarters [8] = assay: Test Example 5: herbicidal effect by foliage application, plastic box (Table 20, symbol O); assay type: in vivo, lambsquarters (Chenopodium album); conditions: amount of applied herbicide 320 g/ha; foliage application after 14-day growth; evaluated three weeks after application
Procedure, shortened: as §2

wild oat [9] = assay: Test Example 5: herbicidal effect by foliage application, plastic box (Table 20, symbol I); assay type: in vivo, wild oat (Avena fatua); conditions: amount of applied herbicide 320 g/ha; foliage application after 14-day growth; evaluated three weeks after application
Procedure, shortened: as §2

Italian ryegrass [10] = assay: Test Example 4: herbicidal effect by soil treatment (Table 19, symbol K); assay type: in vivo, Italian ryegrass (Lolium multiflorum); conditions: amount of applied herbicide 320 g/ha
Procedure, shortened: as §1

wild oat [11] = assay: Test Example 4: herbicidal effect by soil treatment (Table 19, symbol I); assay type: in vivo, wild oat (Avena fatua); conditions: amount of applied herbicide 320 g/ha
Procedure, shortened: as §1

windgrass [12] = assay: Test Example 4: herbicidal effect by soil treatment (Table 19, symbol L); assay type: in vivo, windgrass (Apera spica-venti); conditions: amount of applied herbicide 320 g/ha
Procedure, shortened: as §1

green foxtail [13] = assay: Test Example 5: herbicidal effect by foliage application, plastic box (Table 20, symbol G); assay type: in vivo, green foxtail (Setaria viridis); conditions: amount of applied herbicide 320 g/ha; foliage application after 14-day growth; evaluated three weeks after application
Procedure, shortened: as §2

green foxtail [14] = assay: Test Example 4: herbicidal effect by soil treatment (Table 19, symbol G); assay type: in vivo, green foxtail (Setaria viridis); conditions: amount of applied herbicide 320 g/ha
Procedure, shortened: as §1

velvetleaf [15] = assay: Test Example 5: herbicidal effect by foliage application, plastic box (Table 20, symbol M); assay type: in vivo, velvetleaf (Abutilon theophrasti); conditions: amount of applied herbicide 320 g/ha; foliage application after 14-day growth; evaluated three weeks after application
Procedure, shortened: as §2

rice flat sedge = assay: Test Example 3: herbicidal effect by foliage application, Wagner pot (Table 18, symbol E); assay type: in vivo, rice flat sedge (Cyperus iria); conditions: 320 g/ha
Procedure, shortened: as §3

southern crabgrass [16] = assay: Test Example 5: herbicidal effect by foliage application, plastic box (Table 20, symbol F); assay type: in vivo, southern crabgrass (Digitaria ciliaris); conditions: amount of applied herbicide 320 g/ha; foliage application after 14-day growth; evaluated three weeks after application
Procedure, shortened: as §2

persian speedwell [17] = assay: Test Example 5: herbicidal effect by foliage application, plastic box (Table 20, symbol R); assay type: in vivo, Persian speedwell (Veronica persica); conditions: amount of applied herbicide 320 g/ha; foliage application after 14-day growth; evaluated three weeks after application
Procedure, shortened: as §2

Italian ryegrass [18] = assay: Test Example 5: herbicidal effect by foliage application, plastic box (Table 20, symbol K); assay type: in vivo, Italian ryegrass (Lolium multiflorum); conditions: amount of applied herbicide 320 g/ha; foliage application after 14-day growth; evaluated three weeks after application
Procedure, shortened: as §2

oval-leafed pondweed = assay: Test Example 1: herbicidal activity, application before weed generation under submerged conditions (Table 16, symbol C); assay type: in vivo, oval-leafed pondweed (Monochoria vaginalis); conditions: amount of applied herbicide 320 g/ha
Procedure, shortened: as §4

chickweed [19] = assay: Test Example 4: herbicidal effect by soil treatment (Table 19, symbol P); assay type: in vivo, common chickweed (Stellaria media); conditions: amount of applied herbicide 320 g/ha
Procedure, shortened: as §1

chickweed [20] = assay: Test Example 5: herbicidal effect by foliage application, plastic box (Table 20, symbol P); assay type: in vivo, common chickweed (Stellaria media); conditions: amount of applied herbicide 320 g/ha; foliage application after 14-day growth; evaluated three weeks after application
Procedure, shortened: as §2

lambsquarters [21] = assay: Test Example 4: herbicidal effect by soil treatment (Table 19, symbol O); assay type: in vivo, lambsquarters (Chenopodium album); conditions: amount of applied herbicide 320 g/ha
Procedure, shortened: as §1

false cleavers = assay: Test Example 5: herbicidal effect by foliage application, plastic box (Table 20, symbol Q); assay type: in vivo, false cleavers (Galium spurium); conditions: amount of applied herbicide 320 g/ha; foliage application after 14-day growth; evaluated three weeks after application
Procedure, shortened: as §2

Japanese bulrush = assay: Test Example 1: herbicidal activity, application before weed generation under submerged conditions (Table 16, symbol B); assay type: in vivo, Japanese bulrush (Schoenoplectus juncoides); conditions: amount of applied herbicide 320 g/ha
Procedure, shortened: as §4

blackgrass [22] = assay: Test Example 5: herbicidal effect by foliage application, plastic box (Table 20, symbol J); assay type: in vivo, blackgrass (Alopecurus myosuroides); conditions: amount of applied herbicide 320 g/ha; foliage application after 14-day growth; evaluated three weeks after application
Procedure, shortened: as §2

barnyard grass [23] = assay: Test Example 5: herbicidal effect by foliage application, plastic box (Table 20, symbol H); assay type: in vivo, barnyard grass (Echinochloa crus-galli); conditions: amount of applied herbicide 320 g/ha; foliage application after 14-day growth; evaluated three weeks after application
Procedure, shortened: as §2

barnyard grass [24] = assay: Test Example 3: herbicidal effect by foliage application, Wagner pot (Table 18, symbol H); assay type: in vivo, barnyard grass (Echinochloa crus-galli); conditions: 320 g/ha
Procedure, shortened: as §3

barnyard grass [25] = assay: Test Example 4: herbicidal effect by soil treatment (Table 19, symbol H); assay type: in vivo, barnyard grass (Echinochloa crus-galli); conditions: amount of applied herbicide 320 g/ha
Procedure, shortened: as §1

Row | Structure (SMILES) | N: redroot pigweed, herbicidal effect grade (redroot pigweed [1]) | R: persian speedwell, herbicidal effect grade (persian speedwell [2]) | J: blackgrass, herbicidal effect grade (blackgrass [3]) | M: velvetleaf, herbicidal effect grade (velvetleaf [4]) | F: southern crabgrass, herbicidal effect grade (southern crabgrass [5]) | Herbicidal effect by foliage application, L: windgrass (windgrass [6]) | herbicidal effect on Chinese sprangletop (D) (Chinese sprangletop) | Herbicidal effect by foliage application, N: redroot pigweed (redroot pigweed [7]) | Herbicidal effect, A: late watergrass (late watergrass) | Herbicidal effect by foliage application, O: lambsquarters (lambsquarters [8]) | Herbicidal effect by foliage application, I: wild oat (wild oat [9]) | K: Italian ryegrass, herbicidal effect grade (Italian ryegrass [10]) | I: wild oat, herbicidal effect grade (wild oat [11]) | L: windgrass, herbicidal effect grade (windgrass [12]) | Herbicidal effect by foliage application, G: green foxtail (green foxtail [13]) | G: green foxtail, herbicidal effect grade (green foxtail [14]) | Herbicidal effect by foliage application, M: velvetleaf (velvetleaf [15]) | herbicidal effect on rice flat sedge (E) (rice flat sedge) | Herbicidal effect by foliage application, F: southern crabgrass (southern crabgrass [16]) | Herbicidal effect by foliage application, R: persian speedwell (persian speedwell [17]) | further results
1 | CCCC(=O)Oc1c(C)nn(C)c(=O)c1-c1c(-c2ccc(COC)cc2)sc2cc(F)c(F)cc12 [5-010] | 3 (Herbicidal rate of 40% or more and less than 70%) | 2 (Herbicidal rate of 20% or more and less than 40%) | 0 (Herbicidal rate of 5% or less (almost no effect)) | 2 (Herbicidal rate of 20% or more and less than 40%) | 0 (Herbicidal rate of 5% or less (almost no effect)) | 0 (Herbicidal rate of 5% or less (almost no effect)) | 3 (Herbicidal rate of 40% or more and less than 70%) | 2 (Herbicidal rate of 20% or more and less than 40%) | 0 (Herbicidal rate of 5% or less (almost no effect)) | 3 (Herbicidal rate of 40% or more and less than 70%) | 0 (Herbicidal rate of 5% or less (almost no effect)) | 0 (Herbicidal rate of 5% or less (almost no effect)) | 0 (Herbicidal rate of 5% or less (almost no effect)) | 0 (Herbicidal rate of 5% or less (almost no effect)) | 4 (Herbicidal rate of 70% or more and less than 90%) | 0 (Herbicidal rate of 5% or less (almost no effect)) | 0 (Herbicidal rate of 5% or less (almost no effect)) | 4 (Herbicidal rate of 70% or more and less than 90%) | 0 (Herbicidal rate of 5% or less (almost no effect)) | 5 (Herbicidal rate of 90% or more (almost completely withered)) | Herbicidal effect by foliage application, K: Italian ryegrass (Italian ryegrass [18]): 1 (Herbicidal rate of 5% or more and less than 20%); Herbicidal effect, C: oval-leafed pondweed (oval-leafed pondweed): 0 (Herbicidal rate of 5% or less (almost no effect)); P: chickweed, herbicidal effect grade (chickweed [19]): 0 (Herbicidal rate of 5% or less (almost no effect)); Herbicidal effect by foliage application, P: chickweed (chickweed [20]): 3 (Herbicidal rate of 40% or more and less than 70%); O: lambsquarters, herbicidal effect grade (lambsquarters [21]): 3 (Herbicidal rate of 40% or more and less than 70%); Herbicidal effect by foliage application, Q: false cleavers (false cleavers): 5 (Herbicidal rate of 90% or more (almost completely withered)); Herbicidal effect, B: Japanese bulrush (Japanese bulrush): 2 (Herbicidal rate of 20% or more and less than 40%); Herbicidal effect by foliage application, J: blackgrass (blackgrass [22]): 0 (Herbicidal rate of 5% or less (almost no effect)); Herbicidal effect by foliage application, H: barnyard grass (barnyard grass [23]): 1 (Herbicidal rate of 5% or more and less than 20%); herbicidal effect on barnyard grass (H) (barnyard grass [24]): 3 (Herbicidal rate of 40% or more and less than 70%); H: barnyard grass, herbicidal effect grade (barnyard grass [25]): 2 (Herbicidal rate of 20% or more and less than 40%)
2 | COc1ccccc1-c1sc2cc(F)c(F)cc2c1-c1c(O)c(C)nn(C)c1=O [5-011] | 5 (Herbicidal rate of 90% or more (almost completely withered)) | 5 (Herbicidal rate of 90% or more (almost completely withered)) | 3 (Herbicidal rate of 40% or more and less than 70%) | 5 (Herbicidal rate of 90% or more (almost completely withered)) | 3 (Herbicidal rate of 40% or more and less than 70%) | 4 (Herbicidal rate of 70% or more and less than 90%) | 3 (Herbicidal rate of 40% or more and less than 70%) | 5 (Herbicidal rate of 90% or more (almost completely withered)) | 2 (Herbicidal rate of 20% or more and less than 40%) | 4 (Herbicidal rate of 70% or more and less than 90%) | 3 (Herbicidal rate of 40% or more and less than 70%) | 3 (Herbicidal rate of 40% or more and less than 70%) | 0 (Herbicidal rate of 5% or less (almost no effect)) | 4 (Herbicidal rate of 70% or more and less than 90%) | 5 (Herbicidal rate of 90% or more (almost completely withered)) | 4 (Herbicidal rate of 70% or more and less than 90%) | 5 (Herbicidal rate of 90% or more (almost completely withered)) | 5 (Herbicidal rate of 90% or more (almost completely withered)) | 2 (Herbicidal rate of 20% or more and less than 40%) | 5 (Herbicidal rate of 90% or more (almost completely withered)) | Herbicidal effect by foliage application, K: Italian ryegrass (Italian ryegrass [18]): 3 (Herbicidal rate of 40% or more and less than 70%); Herbicidal effect, C: oval-leafed pondweed (oval-leafed pondweed): 0 (Herbicidal rate of 5% or less (almost no effect)); P: chickweed, herbicidal effect grade (chickweed [19]): 3 (Herbicidal rate of 40% or more and less than 70%); Herbicidal effect by foliage application, P: chickweed (chickweed [20]): 5 (Herbicidal rate of 90% or more (almost completely withered)); O: lambsquarters, herbicidal effect grade (lambsquarters [21]): 5 (Herbicidal rate of 90% or more (almost completely withered)); Herbicidal effect by foliage application, Q: false cleavers (false cleavers): 5 (Herbicidal rate of 90% or more (almost completely withered)); Herbicidal effect, B: Japanese bulrush (Japanese bulrush): 2 (Herbicidal rate of 20% or more and less than 40%); Herbicidal effect by foliage application, J: blackgrass (blackgrass [22]): 3 (Herbicidal rate of 40% or more and less than 70%); Herbicidal effect by foliage application, H: barnyard grass (barnyard grass [23]): 4 (Herbicidal rate of 70% or more and less than 90%); herbicidal effect on barnyard grass (H) (barnyard grass [24]): 5 (Herbicidal rate of 90% or more (almost completely withered)); H: barnyard grass, herbicidal effect grade (barnyard grass [25]): 4 (Herbicidal rate of 70% or more and less than 90%)
